The record followed here is US8242152B2, “Use of 4-[(4-thiazolyl)phenoxy]alkoxy-benzamidine derivatives for the prophylaxis and treatment of osteoporosis” (Dong Wha Pharmaceutical Co., Ltd., priority 2001, dated 2012).

The test system of test [1] is bone resorption of osteoclast. Briefly: Measurement of bone resorption, pit formation assay on ivory fragment (Example 3). The class given is cell-based, mice. Particulars: 24 hrs; for inhibition at 0.016 µM / inhibition at 0.08 µM / inhibition at 0.4 µM / inhibition at 2 µM / inhibition at 10 µM / IC50: Mus musculus, Osteoclast; for inhibition at 0.016 µM / inhibition at 0.08 µM / inhibition at 0.4 µM / inhibition at 2 µM / inhibition at 10 µM: read-out: Inhibitory action (%). The method, then: The mature osteoclast (OCL) is mainly involved in removing mineral by bone resorption. This experiment is designed to measure the inhibitory effects of each test substance on the bone resorption of osteoclast using ivory fragment (Eijiro Jimi et al. Endocrinology 137, p 2187-2190, 1996).
The co-culture system for both bone marrow cells and osteoblast was performed using a cultivation dish containing collagen gel (cell matrix Type I-A). Collagen, 5-fold concentrated α-MEM medium and 0.05M NaOH buffer solution (2.2% NaHCO3, pH7.4) were mixed at the ratio of 7:2:1 at a low temperature, and then storage at a low temperature. Then, 4 mL of the mixed solution was added to a 100 mm culture dish, applied evenly and left at 37° C. for 5 minutes.
Using α-MEM medium, the mixture of both bone marrow cells (about 1×10^7 cells/plate) and osteoblast (about 5×10^5 cells/plate), so separated from Example 1, were plated on a 100 mm dish containing collagen gel. The co-culture was performed in the presence of differentiation factors such as vitamin D (10^−9M) and dexamethasone (10^−6M). As described above, a great number of mature multinucleated osteoclasts with the ability of bone resorption were obtained via a 7-day co-culture. The medium was removed from the cells and with the addition of 0.2% collagenase solution, the attachment cells were separated by incubation for 20 minutes. The cells were collected via centrifuge. The harvested crude osteoclasts were again diluted in α-MEM medium to make the cells of 5,000 cells/100 ul.
Hematoxylin staining solution was prepared in a manner such that hematoxylin (1 g) was dissolved in 500 ml of distilled water and was added to 500 ml of distilled water and […] (0.2 g). The reaction mixture was stirred for 15 mins. Ammonium alum (50 g) and 7.5 ml of acetic acid were further added to the reaction mixture and filtered off.
After the ivory fragments, cut to a thickness of 1 mm, were sterilized, each fragment was placed into a 96 well plate, and 100 ul α-MEM medium (10% FBS) was added. To measure its inhibitory effect against the pit formation of osteoclast, each test substance was added in a maximum amount of 3 ul per concentration.
With the addition of test substances, 100 ul of osteoclast solution was further added, mixed vigorously and cultured using a 5% CO2 incubator at 37° C. for 24 hrs. To observe the pits formed on the ivory fragments, the portion of grown osteoclast was directed upward and placed on a paper towel after removing from the 96 well plate. With the removal of cells on the ivory, 10 ul of hematoxylin solution was dropped on the ivory to perform the staining for about 5 minutes. The surface of the ivory fragments was rubbed with a soft cotton pole to completely remove the staining solution.

For another test, the target named is LTB4 receptor (Homo sapiens, UniProt Q15722). Briefly: LTB4 receptor binding assay on human neutrophils ([3H]-LTB4). More on the design: endogenous in cells; host or cells: human neutrophils (PMN) purified from fresh blood. Particulars: 100 nM; versus DW1350. The method, then:
Neutrophils (PMN) were purified from freshly drawn human blood by standard techniques or dextran T-500 sedimentation and centrifugation on Ficoll/Paquc (pharmacia) followed by hypotonic lysis of crythrocyte. The purified PMN were resuspended to a final concentration of 3×10^7 cells/ml in HESS (Hank's balanced salt solution, Gibco).
The assay was performed following the method described elsewhere (Brown. A. R.; Grccnham, N. C.; Burroughes, J. H.: Bradely, D. C. C.; Friend. R. H.; Burn, P. L.; Kraft. A.: Holmes, A. B.; Chem. Phys, Lett. 1992, 200, 1246). LTB4 receptor binding assay was performed in 12×75 mm polypropylene tubes containing 0.5 nM of [^3H]-LTB4 (200 Ci/mmol), competitive compound, and cells suspended in HBSS (3×10^6 cells) (final volume: 200 ul). The tubes were incubated on ice for 45 minutes. Free and PMN bound [^3H]-LTB4 were separated by filtration through Whatman GF/C filters. The filters were then washed three times with 5 ml of ice cold Tris buffer (pH 7.4). […] The radioactivity was measured by liquid scintillation spectrometry. The specific binding was determined as the count difference total binding and binding in the presence of 1000-fold excess of unlabeled LTB4 (Scontrol). The LTB4 binding activity was calculated from the percent inhibition of specific [^3H]-LTB4 binding at various concentrations (Ssample). […]

Sequence of LTB4 receptor (Q15722 whole entry): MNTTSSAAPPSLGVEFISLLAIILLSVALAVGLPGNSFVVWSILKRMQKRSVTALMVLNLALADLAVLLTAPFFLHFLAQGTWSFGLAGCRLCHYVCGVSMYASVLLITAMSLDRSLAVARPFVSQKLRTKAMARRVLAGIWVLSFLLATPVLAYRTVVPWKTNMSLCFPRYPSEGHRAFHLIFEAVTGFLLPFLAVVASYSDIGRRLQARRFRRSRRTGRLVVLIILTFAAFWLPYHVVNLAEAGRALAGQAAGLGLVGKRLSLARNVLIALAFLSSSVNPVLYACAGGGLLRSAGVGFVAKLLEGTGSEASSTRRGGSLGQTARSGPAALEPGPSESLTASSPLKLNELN

For “4-[5-[4-(aminoiminomethyl)phenoxy]pentoxy]-3-methoxy-N,N-bis(1-methylethyl)benzamide maleic acid [CGS-25019C]”, the “Inhibitory action (%)” value is 0% in test [1] (0.016 μM); 0% in test [1] (0.08 μM); 2% in test [1] (0.4 μM); 9.2% in test [1] (2 μM); 17.3% in test [1] (10 μM).
As for `Cc1nc(-c2ccc(OCCCCOc3ccc(C(=N)NO)cc3)cc2)c(C(C)C)s1` [DW1349, N— hydroxy-4-{4-[4-(5-isopropyl-2-methyl-1,3-thiazol-4-yl)phenoxy]butoxy}-benzamidine], the “times the inhibition of LTB4 receptor binding of DW1350” value at LTB4 receptor is “more than three times”.
With `Cc1nc(-c2ccc(OCCCCCOc3ccc(C(=N)NO)cc3)cc2)c(C(C)C)s1` [DW1350, N-hydroxy-4-{5-[4-(5-isopropyl-2-methyl-1,3-thiazol-4-yl)phenoxy]pentoxy}-benzamidine], in test [1] (0.016 μM), the inhibition at 0.016 µM was 32.2%. The inhibition at 0.08 µM in test [1] (0.08 μM) came to 53.9%. For the same molecule, the inhibition at 0.4 µM in test [1] (0.4 μM) came out at 65.2%. Further, in test [1] (2 μM), the inhibition at 2 µM stood at 84.3%. For the same molecule, the inhibition at 10 µM in test [1] (10 μM) is 91.3%. Besides, the IC50 (as a rule, the concentration that inhibits the measured activity by half) in test [1] amounted to 75 nM.
`Cc1nc(-c2ccc(OCCCCOc3ccc(C(=N)N)cc3)cc2)c(C(C)C)s1` [DW1351, 4-{4-[4-(5-isopropyl-2-methyl-1,3-thiazol-4-yl)phenoxy]butoxy}-benzamidine]: the “times the inhibition of LTB4 receptor binding of DW1350” value at LTB4 receptor is on record as “more than eight times”.
Take `Cc1nc(-c2ccc(OCCCCCOc3ccc(C(=N)N)cc3)cc2)c(C(C)C)s1` [DW1352, 4-{5-[4-(5-isopropyl-2-methyl-1,3-thiazol-4-yl)phenoxy]pentoxy}-benzamidine]: the inhibition at 0.016 µM in test [1] (0.016 μM) is 25%. Moreover, the inhibition at 0.08 µM in test [1] (0.08 μM) worked out at 48.7%. The inhibition at 0.4 µM in test [1] (0.4 μM) came to 61.3%. For the same molecule, the inhibition at 2 µM in test [1] (2 μM) is 81.7%. Further, the inhibition at 10 µM in test [1] (10 μM) was 90%. This molecule registered an IC50 in test [1] of 131 nM.
For the molecule `COc1cc(C(=O)N(C(C)C)C(C)C)ccc1OCCCCOc1ccc2c(N)noc2c1` [HS1141, N,N-diisopropyl-4-[4-(3-aminobenzo[d]isooxazole-6-yloxy)butoxy]-3-methoxybenzamide], in test [1] (0.016 μM), the inhibition at 0.016 µM was determined as 9%. The inhibition at 0.08 µM in test [1] (0.08 μM) is 33%. The inhibition at 0.4 µM in test [1] (0.4 μM) worked out at 50.4%. Besides, the inhibition at 2 µM in test [1] (2 μM) worked out at 75.3%. Further, in test [1] (10 μM), the inhibition at 10 µM is 88.7%. The molecule also registered an IC50 in test [1] of 421 nM.
